Assay results from patent publication EP0553673A1 (priority 1992, dated 1993).

Tested on: Krebszellen der Zellinie BIR-M1Rk
Type: cell-based, Marshall-Ratten

Structure (SMILES): COC(CCOCc1ccccc1)(CCOP(N)(=O)N(CCCl)CCCl)OC (racemic) [Beispiel 6]
- um den Faktor verringerte Überlebensrate der Krebszellen (pH 6): 10 000
- Toxizität (pH 7): nur eine geringe Toxizität
